ChEMBL document CHEMBL5724914, “Linking interpersonal differences in gut microbiota composition and drug biotransformation activity” (2024)

What was measured:
[1] = human gut metagenome, 24 h, 2 µM
[2] = (§1) The drug is tested on Z-010 corresponding to metagenome with ENA study accession number: PRJEB37062 and ENA sample accession number: ERS12561810 for biotransformation under anaerobic condition. The drug concentrations were measured over 9 timepoints collected between 0 and 24 hours of incubation by liquid-chromatography-coupled mass spectrometry (LC–MS); details: 2 µM
[3] = human gut metagenome, 24 h, 2 µM; remark: listed apart in the source
[4] = (§2) The drug is tested on WLS-039 corresponding to human gut metagenome with ENA study accession number: PRJEB37062 and ENA sample accession number: ERS12561746 for biotransformation under anaerobic condition. The drug concentrations were measured over 9 timepoints collected between 0 and 24 hours of incubation by liquid-chromatography-coupled mass spectrometry (LC–MS); details: 2 µM
[5] = as §2, with “Z-013” for “WLS-039”, “rabbit” for “human”, “ERS12561813” for “ERS12561746”; details: 2 µM
[6] = as §2, with “Z-018” for “WLS-039”, “pig” for “human”, “ERS12561817” for “ERS12561746”; details: 2 µM
[7] = as §2, with “Z-011” for “WLS-039”, “mouse” for “human”, “ERS12561811” for “ERS12561746”; details: 2 µM
[8] = as §2, with “WLS-077” for “WLS-039”, “ERS12561750” for “ERS12561746”; details: 2 µM
[9] = human gut metagenome, 24 h, 2 µM; remark: listed apart in the source
[10] = as §2, with “Z-028” for “WLS-039”, “mouse” for “human”, “ERS12561827” for “ERS12561746”; details: 2 µM
[11] = as §1, with “Z-008” for “Z-010”, “ERS12561808” for “ERS12561810”; details: 2 µM
[12] = human gut metagenome, 24 h, 2 µM; remark: listed apart in the source
[13] = as §2, with “WLS-240” for “WLS-039”, “ERS12561773” for “ERS12561746”; details: 2 µM
[14] = as §2, with “Z-006” for “WLS-039”, “mouse” for “human”, “ERS12561806” for “ERS12561746”; details: 2 µM
[15] = human gut metagenome, 24 h, 2 µM; remark: listed apart in the source
[16] = as §1, with “Z-023” for “Z-010”, “ERS12561822” for “ERS12561810”; details: 2 µM
[17] = human gut metagenome, 24 h, 2 µM; remark: listed apart in the source
[18] = as §2, with “WLS-350” for “WLS-039”, “ERS12561789” for “ERS12561746”; details: 2 µM
[19] = as §2, with “Z-001” for “WLS-039”, “mouse” for “human”, “ERS12561801” for “ERS12561746”; details: 2 µM
[20] = human gut metagenome, 24 h, 2 µM; remark: listed apart in the source
Note: call rule not given here.

| Compound | Bacterial Biotransformation [1] | Bacterial Biotransformation [2] | Bacterial Biotransformation [3] | Bacterial Biotransformation [4] | Bacterial Biotransformation [5] | Bacterial Biotransformation [6] | Bacterial Biotransformation [7] | Bacterial Biotransformation [8] | Bacterial Biotransformation [9] | Bacterial Biotransformation [10] | Bacterial Biotransformation [11] | Bacterial Biotransformation [12] | Bacterial Biotransformation [13] | Bacterial Biotransformation [14] | Bacterial Biotransformation [15] | Bacterial Biotransformation [16] | Bacterial Biotransformation [17] | Bacterial Biotransformation [18] | Bacterial Biotransformation [19] | Bacterial Biotransformation [20] |
| --- | --- | --- | --- | --- | --- | --- | --- | --- | --- | --- | --- | --- | --- | --- | --- | --- | --- | --- | --- | --- |
| CC(C)(C)N.CCC[C@H](N[C@@H](C)C(=O)N1[C@H](C(=O)O)C[C@@H]2CCCC[C@@H]21)C(=O)OCC [PERINDOPRIL ERBUMINE] | Compound metabolized | Compound metabolized | Compound metabolized | Compound NOT metabolized | Compound NOT metabolized | Compound metabolized | Compound NOT metabolized | Compound NOT metabolized | Compound metabolized | Compound NOT metabolized | Compound NOT metabolized | Compound metabolized | Compound metabolized | Compound NOT metabolized | Compound metabolized | Compound metabolized | Compound NOT metabolized | Compound metabolized | Compound NOT metabolized | Compound metabolized |
| COc1cc(NC(C)CCCN)c2ncccc2c1.O=P(O)(O)O.O=P(O)(O)O (stereo not given) [PRIMAQUINE PHOSPHATE] | Compound NOT metabolized | Compound NOT metabolized | Compound NOT metabolized | Compound metabolized | Compound NOT metabolized | Compound NOT metabolized | Compound NOT metabolized | Compound NOT metabolized | Compound NOT metabolized | Compound NOT metabolized | Compound NOT metabolized | Compound NOT metabolized | Compound metabolized | Compound NOT metabolized | Compound NOT metabolized | Compound NOT metabolized | Compound NOT metabolized | Compound NOT metabolized | Compound NOT metabolized | Compound NOT metabolized |
| C=C[C@H]1CN2CC[C@H]1C[C@H]2[C@H](O)c1ccnc2ccc(OC)cc12.C=C[C@H]1CN2CC[C@H]1C[C@H]2[C@H](O)c1ccnc2ccc(OC)cc12.O.O.O=S(=O)(O)O [QUININE SULFATE] | Compound NOT metabolized | Compound metabolized | Compound metabolized | Compound NOT metabolized | Compound NOT metabolized | Compound NOT metabolized | Compound NOT metabolized | Compound NOT metabolized | Compound metabolized | Compound NOT metabolized | Compound NOT metabolized | Compound metabolized | Compound metabolized | Compound NOT metabolized | Compound NOT metabolized | Compound NOT metabolized | Compound NOT metabolized | Compound NOT metabolized | Compound NOT metabolized | Compound metabolized |
